Paper PMC5613243 (Chemical Science, 2017)

Target: T1, XiaK (Streptomyces sp. SCSIO 02999, UniProt I3VFC1)
T1 sequence (I3VFC1 1-596): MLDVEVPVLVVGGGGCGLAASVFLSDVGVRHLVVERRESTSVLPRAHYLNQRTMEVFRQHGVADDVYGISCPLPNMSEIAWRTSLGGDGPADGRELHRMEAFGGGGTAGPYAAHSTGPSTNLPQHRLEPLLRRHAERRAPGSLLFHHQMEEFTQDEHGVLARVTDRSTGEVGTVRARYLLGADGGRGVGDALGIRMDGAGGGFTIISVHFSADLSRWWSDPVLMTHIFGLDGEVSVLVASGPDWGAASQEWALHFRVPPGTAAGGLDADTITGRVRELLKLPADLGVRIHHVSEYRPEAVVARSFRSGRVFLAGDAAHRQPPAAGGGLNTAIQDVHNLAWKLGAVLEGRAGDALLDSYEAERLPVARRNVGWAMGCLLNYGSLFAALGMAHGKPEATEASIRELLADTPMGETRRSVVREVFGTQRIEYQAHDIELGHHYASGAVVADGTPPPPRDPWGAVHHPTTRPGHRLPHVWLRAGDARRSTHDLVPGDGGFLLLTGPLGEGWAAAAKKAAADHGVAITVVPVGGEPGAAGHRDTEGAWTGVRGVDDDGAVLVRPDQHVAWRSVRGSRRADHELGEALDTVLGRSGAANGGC
Experiment: release of bound flavin by heat denaturation of purified protein
Format: binding
Details: noncovalently bound, co-purified cofactor

SMILES: Cc1cc2nc3c(=O)[nH]c(=O)nc-3n(C[C@H](O)[C@H](O)[C@H](O)COP(=O)(O)OP(=O)(O)OC[C@H]3O[C@@H](n4cnc5c(N)ncnc54)[C@H](O)[C@@H]3O)c2cc1C [FAD]
- release of bound flavin by heat denaturation of purified protein: released the noncovalently-bound flavin adenosine dinucleotide (FAD) cofactor upon heat denaturation
